Source: patent publication US20240238425A1, “HSD17B13 Inhibitors and/or Degraders” (Pfizer Inc., priority 2022, published 2024)
Structures can show the parent of a compound that is named as a salt.

System: HiBiT-HSD17β13 fusion protein (N-terminal HiBiT-tagged HSD17β13 isoform D) in Huh7 HiBiT-HSD17β13 OE cells
Assay: Whole-cell Huh7-HSD17B13 HiBiT assay (degrader potency and maximal efficacy, luminescence readout)
Format: cell-based, human
Conditions: 24 hour incubation, geometric mean, * = geometric mean for all forms tested (parent and salt forms); for DC50: read-out: Huh7_HIBIT-HSD17β13_DC50 GMean DC50; for Huh7_HIBIT-HSD17β13_DC50 GMean Asymptote Maximum: max. concentration 1 μM
Summary of the method: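 Luminescence from lytic HiBiT detection tracked residual HiBiT-HSD17β13 (isoform D, N-terminal tag) in a stable Huh7 overexpressing clone after 24 h compound treatment at 37° C, 11 concentrations up to 1 μM final. Percent effect used DMSO (zero) and parental Huh7 (high) wells; four-parameter fit gave 50% degradation; viability checked by CellTiter-Glo.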

| SMILES | DC50 [nM] | Huh7_HIBIT-HSD17β13_DC50 GMean Asymptote Maximum [%] |
| --- | --- | --- |
| Cn1c(=O)n(C2CCC(=O)NC2=O)c2ccc(CCCN3CCn4cc(-c5ccc6cn([C@H]7CC[C@H](CNC(=O)c8cc(F)c(O)c(F)c8F)CC7)nc6c5)nc4C3)cc21 (mixture of isomers) [Example 100, N-{[(1r,4r)-4-{6-[7-(3-{1-[(3RS)-2,6-dioxopiperidin-3-yl]-3-methyl-2-oxo-2,3-dihydro-1H-benzimidazol-5-yl}propyl)-5,6,7,8-tetrahydroimidazo[1,2-a]pyrazin-2-yl]-2H-indazol-2-yl}cyclohexyl]methyl}-2,3,5-trifluoro-4-hydroxybenzamide, formate salt] | 2.2 | 84 |
| Cn1c(=O)n(C2CCC(=O)NC2=O)c2ccc(CCCN3CC[C@@H]4CN(c5ccc6cn([C@H]7CC[C@H](CNC(=O)c8cc(F)c(O)c(F)c8F)CC7)nc6c5)C[C@H]4C3)cc21 (mixture of isomers) [Example 101, N-{[(1r,4r)-4-{6-[(3aR,7aS)-5-(3-{1-[(3RS)-2,6-dioxopiperidin-3-yl]-3-methyl-2-oxo-2,3-dihydro-1H-benzimidazol-5-yl}propyl)octahydro-2H-pyrrolo[3,4-c]pyridin-2-yl]-2H-indazol-2-yl}cyclohexyl]methyl}-2,3,5-trifluoro-4-hydroxybenzamide, formate salt] | 0.88 | 74 |
| Cn1c(=O)n(C2CCC(=O)NC2=O)c2ccc(CCCN3C[C@@H]4CCN(c5ccc6cn([C@H]7CC[C@H](CNC(=O)c8cc(F)c(O)c(F)c8F)CC7)nc6c5)C[C@@H]4C3)cc21 (mixture of isomers) [Example 102, N-{[(1r,4r)-4-{6-[(3aS,7aR)-2-(3-{1-[(3RS)-2,6-dioxopiperidin-3-yl]-3-methyl-2-oxo-2,3-dihydro-1H-benzimidazol-5-yl}propyl)octahydro-5H-pyrrolo[3,4-c]pyridin-5-yl]-2H-indazol-2-yl}cyclohexyl]methyl}-2,3,5-trifluoro-4-hydroxybenzamide, formate salt] | 1.5 | 74 |
| Cn1c(=O)n(C2CCC(=O)NC2=O)c2ccc(CCN3Cc4ccc(-c5ccc6cn([C@H]7CC[C@H](CNC(=O)c8cc(F)c(O)c(F)c8F)CC7)nc6c5)cc4C3)cc21 (mixture of isomers) [Example 106, N-{[(1r,4r)-4-{6-[2-(2-{1-[(3RS)-2,6-dioxopiperidin-3-yl]-3-methyl-2-oxo-2,3-dihydro-1H-benzimidazol-5-yl}ethyl)-2,3-dihydro-1H-isoindol-5-yl]-2H-indazol-2-yl}cyclohexyl]methyl}-2,3,5-trifluoro-4-hydroxybenzamide, trifluoroacetate salt] | 0.22 | 80 |
| Cn1c(=O)n(C2CCC(=O)NC2=O)c2ccc(CCCN3CCc4nc(-c5ccc6cn([C@H]7CC[C@H](CNC(=O)c8cc(F)c(O)c(F)c8F)CC7)nc6c5)sc4C3)cc21 (mixture of isomers) [Example 115, N-{[(1r,4r)-4-{6-[5-(3-{1-[(3RS)-2,6-dioxopiperidin-3-yl]-3-methyl-2-oxo-2,3-dihydro-1H-benzimidazol-5-yl}propyl)-4,5,6,7-tetrahydro[1,3]thiazolo[5,4-c]pyridin-2-yl]-2H-indazol-2-yl}cyclohexyl]methyl}-2,3,5-trifluoro-4-hydroxybenzamide, trifluoroacetate salt] | 0.26 | 79 |
| Cn1c(=O)n(C2CCC(=O)NC2=O)c2ccc(CCCN3Cc4cc(-c5ccc6cn([C@H]7CC[C@H](CNC(=O)c8cc(F)c(O)c(F)c8F)CC7)nc6c5)cnc4C3)cc21 (mixture of isomers) [Example 116, N-{[(1r,4r)-4-{6-[6-(3-{1-[(3RS)-2,6-dioxopiperidin-3-yl]-3-methyl-2-oxo-2,3-dihydro-1H-benzimidazol-5-yl}propyl)-6,7-dihydro-5H-pyrrolo[3,4-b]pyridin-3-yl]-2H-indazol-2-yl}cyclohexyl]methyl}-2,3,5-trifluoro-4-hydroxybenzamide, trifluoroacetate salt] | 0.2 | 88 |
| Cn1c(=O)n(C2CCC(=O)NC2=O)c2ccc(CCN3CCOC4(C3)CN(c3ccc5cn([C@H]6CC[C@H](CNC(=O)c7cc(F)c(O)c(F)c7F)CC6)nc5c3)C4)cc21 (mixture of isomers) [Example 117, N-{[(1r,4r)-4-{6-[8-(2-{1-[(3RS)-2,6-dioxopiperidin-3-yl]-3-methyl-2-oxo-2,3-dihydro-1H-benzimidazol-5-yl}ethyl)-5-oxa-2,8-diazaspiro[3.5]nonan-2-yl]-2H-indazol-2-yl}cyclohexyl]methyl}-2,3,5-trifluoro-4-hydroxybenzamide, trifluoroacetate salt] | 0.95 | 79 |
| Cn1c(=O)n(C2CCC(=O)NC2=O)c2ccc(CCCN3C[C@H]4CN(c5ccc6cn([C@H]7CC[C@H](CNC(=O)c8cc(F)c(O)c(F)c8F)CC7)nc6c5)C[C@@H]4C3)cc21 (mixture of isomers) [Example 118, N-{[(1r,4r)-4-{6-[(3aS,6aS)-5-(3-{1-[(3RS)-2,6-dioxopiperidin-3-yl]-3-methyl-2-oxo-2,3-dihydro-1H-benzimidazol-5-yl}propyl)hexahydropyrrolo[3,4-c]pyrrol-2(1H)-yl]-2H-indazol-2-yl}cyclohexyl]methyl}-2,3,5-trifluoro-4-hydroxybenzamide, trifluoroacetate salt] | 2.9 | 78 |
| Cn1c(=O)n(C2CCC(=O)NC2=O)c2ccc(CCCN3Cc4cnc(-c5ccc6cn([C@H]7CC[C@H](CNC(=O)c8cc(F)c(O)c(F)c8F)CC7)nc6c5)cc4C3)cc21 (mixture of isomers) [Example 119, N-{[(1r,4r)-4-{6-[2-(3-{1-[(3RS)-2,6-dioxopiperidin-3-yl]-3-methyl-2-oxo-2,3-dihydro-1H-benzimidazol-5-yl}propyl)-2,3-dihydro-1H-pyrrolo[3,4-c]pyridin-6-yl]-2H-indazol-2-yl}cyclohexyl]methyl}-2,3,5-trifluoro-4-hydroxybenzamide, formate salt] | 0.28 | 75 |
| Cn1c(=O)n(C2CCC(=O)NC2=O)c2ccc(CCCN3CCN(c4cnc(-c5ccn6cc([C@]78CC[C@](CNC(=O)c9cc(F)c(O)c(F)c9F)(CC7)CC8)nc6c5)nc4)CC3)cc21 (mixture of isomers) [Example 120, N-{[4-(7-{5-[4-(3-{1-[(3RS)-2,6-dioxopiperidin-3-yl]-3-methyl-2-oxo-2,3-dihydro-1H-benzimidazol-5-yl}propyl)piperazin-1-yl]pyrimidin-2-yl}imidazo[1,2-a]pyridin-2-yl)bicyclo[2.2.2]octan-1-yl]methyl}-2,3,5-trifluoro-4-hydroxybenzamide, trifluoroacetate salt] | 0.15 | 82 |
| Cn1c(=O)n(C2CCC(=O)NC2=O)c2ccc(CCCN3CCN(c4nccc(-c5nc([C@]67CC[C@](CNC(=O)c8cc(F)c(O)c(F)c8F)(CC6)CC7)no5)n4)CC3)cc21 (mixture of isomers) [Example 121, formate salt] | 0.2 | 85 |
